Laboratory results from patent US9796716B2, “Selective inhibitors of Tec and Src protein kinase families” (Pharmascience, Inc., priority 2012, dated 2017).

Assays:
[1] = test system: Splenocytes (B cell proliferation stimulated with anti-IgM F(ab′)2); assay: Splenic Cell Proliferation Assay; type: cell-based; settings: Mus musculus, Splenocyte, 72 h, CD1 mouse splenocytes, 2.5 ug/ml anti-IgM F(ab′)2 for 72 h, Cell Titer-Glo; read-out: EC50 (nM), Inhibition of splenic cell proliferation
Procedure: Splenic Cell Proliferation Assay
Splenocytes were obtained from 6 week old male CD1 mice (Charles River Laboratories Inc.). Mouse spleens were manually disrupted in PBS and filtered using a 70 um cell strainer followed by ammonium chloride red blood cell lysis. Cells were washed, resuspended in Splenocyte Medium (HyClone RPMI supplemented with 10% heat-inactivated FBS, 0.5× non-essential amino acids, 10 mM HEPES, 50 uM beta mercaptoethanol) and incubated at 37° C., 5% CO2 for 2 h to remove adherent cells. Suspension cells were seeded in 96 well plates at 50,000 cells per well and incubated at 37° C., 5% CO2 for 1 h. Splenocytes were pre-treated in triplicate with 10,000 nM curves of Formula 1 compounds for 1 h, followed by stimulation of B cell proliferation with 2.5 ug/ml anti-IgM F(ab′)2 (Jackson ImmunoResearch) for 72 h. Cell proliferation was measured by Cell Titer-Glo Luminescent Assay (Promega). EC50 values (50% proliferation in the presence of compound as compared to vehicle treated controls) were calculated from dose response compound curves using GraphPad Prism Software.

[2] = target: recombinant human full-length Bruton Agammaglobulinemia Tyrosine Kinase (Btk) (Homo sapiens (Human), UniProt Q06187); assay: Btk Kinase Inhibition Assay (fluorescence polarization); type: biochemical; settings: 10 μM ATP, 250 μM substrate, 60 minutes; Ki calculated from IC50 using the Cheng-Prusoff equation
Procedure: Kinase Binding Btk Kinase Inhibition Assay
Fluorescence polarization-based kinase assays were performed in 384 well-plate format using histidine tagged recombinant human full-length Bruton Agammaglobulinemia Tyrosine Kinase (Btk) and a modified protocol of the KinEASE™ FP Fluorescein Green Assay supplied from Millipore. Kinase reaction were performed at room temperature for 60 minutes in presence of 250 μM substrate, 10 μM ATP and variable test article concentrations. The reaction was stopped with EDTA/kinase detection reagents and the polarization measured on a Tecan 500 instrument. From the dose-response curve obtained, the IC50 was calculated using Graph Pad Prisms® using a non linear fit curve. The Km for ATP on each enzyme was experimentally determined and the Ki values calculated using the Cheng-Prusoff equation (see: Cheng Y, Prusoff W H. (1973) Relationship between the inhibition constant (K1) and the concentration of inhibitor which causes 50 percent inhibition (I50) of an enzymatic reaction”. Biochem Pharmacol 22 (23): 3099-108).

Sequence of recombinant human full-length Bruton Agammaglobulinemia Tyrosine Kinase (Btk) (Q06187 whole entry): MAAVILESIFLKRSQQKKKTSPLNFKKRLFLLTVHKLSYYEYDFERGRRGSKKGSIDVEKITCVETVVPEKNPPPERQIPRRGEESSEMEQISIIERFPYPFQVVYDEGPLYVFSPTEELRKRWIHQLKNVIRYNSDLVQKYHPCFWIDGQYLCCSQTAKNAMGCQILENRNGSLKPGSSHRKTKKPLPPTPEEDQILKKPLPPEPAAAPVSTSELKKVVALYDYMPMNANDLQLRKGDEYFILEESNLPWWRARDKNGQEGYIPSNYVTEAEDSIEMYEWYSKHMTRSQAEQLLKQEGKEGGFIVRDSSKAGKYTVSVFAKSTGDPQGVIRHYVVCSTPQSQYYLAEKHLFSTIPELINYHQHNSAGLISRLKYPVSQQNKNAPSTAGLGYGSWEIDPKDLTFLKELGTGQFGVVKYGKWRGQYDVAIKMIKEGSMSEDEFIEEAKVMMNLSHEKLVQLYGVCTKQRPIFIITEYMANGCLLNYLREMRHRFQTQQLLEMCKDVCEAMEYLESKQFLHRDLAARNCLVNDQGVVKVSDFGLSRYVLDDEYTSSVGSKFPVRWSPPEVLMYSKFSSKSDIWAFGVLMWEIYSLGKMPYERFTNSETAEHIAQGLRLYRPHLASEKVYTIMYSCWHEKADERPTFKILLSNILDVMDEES

In the case of `Nc1ncnc2[nH]nc(-c3ccc(Oc4cccc(OCc5ccccc5)c4)cc3)c12` [Compound 1], the EC50 [1] is reported as 100 to 1000 nM and the Ki [2] is reported as < 100 nM.

`Nc1ncnc2c1c(-c1ccc(Oc3cccc(OCc4ccccc4)c3)cc1)nn2C1CCCC1` [Compound 2] was tested, and the EC50 [1] was 100 to 1000 nM and the Ki [2] was < 100 nM.

For `CC(C)(C)OC(=O)N1CCC[C@@H](n2nc(-c3ccc(Oc4cccc(OCc5ccccc5)c4)cc3)c3c(N)ncnc32)C1` [Compound 3], the EC50 [1] was 100 to 1000 nM and the Ki [2] was < 100 nM.

With `Nc1ncnc2c1c(-c1ccc(Oc3cccc(OCc4ccccc4)c3)cc1)nn2[C@@H]1CCCNC1` [Compound 4] the EC50 [1] was 100 to 1000 nM and the Ki [2] was < 100 nM.

For `C=CC(=O)N1CCC[C@@H](n2nc(-c3ccc(Oc4cccc(OCc5ccccc5)c4)cc3)c3c(N)ncnc32)C1` [Compound 5], the EC50 [1] was < 100 nM and the Ki [2] was < 100 nM.

With `CC(=O)N1CCC[C@@H](n2nc(-c3ccc(Oc4cccc(OCc5ccccc5)c4)cc3)c3c(N)ncnc32)C1` [Compound 6] the EC50 [1] was < 100 nM and the Ki [2] was < 100 nM.

`CCCC(=O)N1CCC[C@@H](n2nc(-c3ccc(Oc4cccc(OCc5ccccc5)c4)cc3)c3c(N)ncnc32)C1` [Compound 7] was tested, and the EC50 [1] was 100 to 1000 nM and the Ki [2] was < 100 nM.

In the case of `CC(C)C(=O)N1CCC[C@@H](n2nc(-c3ccc(Oc4cccc(OCc5ccccc5)c4)cc3)c3c(N)ncnc32)C1` [Compound 8], the EC50 [1] is reported as < 100 nM and the Ki [2] is reported as < 100 nM.

For `Nc1ncnc2c1c(-c1ccc(Oc3cccc(OCc4ccc(Cl)cc4)c3)cc1)nn2C1CCCC1` [Compound 9], the EC50 [1] was 100 to 1000 nM and the Ki [2] was < 100 nM.

For `COc1cccc(COc2cccc(Oc3ccc(-c4nn(C5CCCC5)c5ncnc(N)c45)cc3)c2)c1` [Compound 10], the EC50 [1] was 100 to 1000 nM and the Ki [2] was < 100 nM.

In the case of `COc1ccc(COc2cccc(Oc3ccc(-c4nn(C5CCCC5)c5ncnc(N)c45)cc3)c2)cc1` [Compound 11], the EC50 [1] is reported as 100 to 1000 nM and the Ki [2] is reported as < 100 nM.

In the case of `N#Cc1ccccc1COc1cccc(Oc2ccc(-c3nn(C4CCCC4)c4ncnc(N)c34)cc2)c1` [Compound 12], the EC50 [1] is reported as 100 to 1000 nM and the Ki [2] is reported as < 100 nM.

`Nc1ncnc2c1c(-c1ccc(Oc3cccc(COc4ccccc4)c3)cc1)nn2C1CCCC1` [Compound 13] was tested, and the EC50 [1] was < 100 nM and the Ki [2] was < 100 nM.

For `Cn1nc(-c2ccc(Oc3cccc(OCc4ccccc4)c3)cc2)c2c(N)ncnc21` [Compound 16], the EC50 [1] was 100 to 1000 nM and the Ki [2] was < 100 nM.

`Cn1nc(-c2ccc(Oc3cccc(COc4ccccc4C#N)c3)cc2)c2c(N)ncnc21` [Compound 17] was tested, and the EC50 [1] was 100 to 1000 nM and the Ki [2] was < 100 nM.

For `Cc1ncc(COc2cccc(Oc3ccc(-c4nn(C)c5ncnc(N)c45)cc3)c2)s1` [Compound 18], the EC50 [1] was < 100 nM and the Ki [2] was < 100 nM.

With `Cn1nc(-c2ccc(Oc3cccc(OCc4cncs4)c3)cc2)c2c(N)ncnc21` [Compound 19] the EC50 [1] was 100 to 1000 nM and the Ki [2] was < 100 nM.

With `Cn1nc(-c2ccc(Oc3cccc(OCc4ccccc4C(F)(F)F)c3)cc2)c2c(N)ncnc21` [Compound 20] the EC50 [1] was < 100 nM and the Ki [2] was < 100 nM.

With `Nc1ncnc2c1c(-c1ccc(Oc3cccc(OCc4ccccc4)c3)cc1)nn2C1CCOCC1` [Compound 21] the EC50 [1] was < 100 nM and the Ki [2] was < 100 nM.

In the case of `N#Cc1ccccc1OCc1cccc(Oc2ccc(-c3nn(C4CCOCC4)c4ncnc(N)c34)cc2)c1` [Compound 22], the EC50 [1] is reported as < 100 nM and the Ki [2] is reported as < 100 nM.

In the case of `Nc1ncnc2c1c(-c1ccc(Oc3cccc(OCc4ccccc4C(F)(F)F)c3)cc1)nn2C1CCOCC1` [Compound 23], the EC50 [1] is reported as < 100 nM and the Ki [2] is reported as < 100 nM.

In the case of `CC(=O)N1CCC[C@@H](n2nc(-c3ccc(Oc4cccc(COc5ccccc5C#N)c4)cc3)c3c(N)ncnc32)C1` [Compound 25], the EC50 [1] is reported as < 100 nM and the Ki [2] is reported as < 100 nM.

In the case of `CC(=O)N1CCC[C@@H](n2nc(-c3ccc(Oc4cccc(OCc5ccccc5C(F)(F)F)c4)cc3)c3c(N)ncnc32)C1` [Compound 26], the EC50 [1] is reported as < 100 nM and the Ki [2] is reported as < 100 nM.

With `CC(=O)N1CCC[C@@H](n2nc(-c3ccc(Oc4cccc(OCc5cncs5)c4)cc3)c3c(N)ncnc32)C1` [Compound 27] the EC50 [1] was < 100 nM and the Ki [2] was < 100 nM.

In the case of `CC(=O)N1CCC[C@@H](n2nc(-c3ccc(Oc4cccc(OCc5ccccc5C#N)c4)cc3)c3c(N)ncnc32)C1` [Compound 28], the EC50 [1] is reported as < 100 nM and the Ki [2] is reported as < 100 nM.

`Nc1ncnc2c1c(-c1ccc(Oc3cccc(OCc4ccccc4C(F)(F)F)c3)cc1)nn2C1CCCC1` [Compound 29] was tested, and the EC50 [1] was < 100 nM and the Ki [2] was < 100 nM.

For `Cn1nc(-c2ccc(Oc3cccc(OCc4ccccc4C#N)c3)cc2)c2c(N)ncnc21` [Compound 30], the EC50 [1] was < 100 nM and the Ki [2] was < 100 nM.

For `Cn1nc(-c2ccc(Oc3cccc(COc4ccccc4C(F)(F)F)c3)cc2)c2c(N)ncnc21` [Compound 31], the EC50 [1] was 100 to 1000 nM and the Ki [2] was < 100 nM.

For `Nc1ncnc2c1c(-c1ccc(Oc3cccc(COc4ccccc4C(F)(F)F)c3)cc1)nn2C1CCCC1` [Compound 32], the EC50 [1] was < 100 nM and the Ki [2] was < 100 nM.

In the case of `CC(=O)N1CCC[C@@H](n2nc(-c3ccc(Oc4cccc(COc5ccccc5C(F)(F)F)c4)cc3)c3c(N)ncnc32)C1` [Compound 33], the EC50 [1] is reported as < 100 nM and the Ki [2] is reported as < 100 nM.

For `CN(C)CCn1nc(-c2ccc(Oc3cccc(OCc4cncs4)c3)cc2)c2c(N)ncnc21` [Compound 34], the EC50 [1] was 100 to 1000 nM and the Ki [2] was < 100 nM.

With `N#Cc1ccccc1COc1cccc(Oc2ccc(-c3nn(C4CCOCC4)c4ncnc(N)c34)cc2)c1` [Compound 35] the EC50 [1] was < 100 nM and the Ki [2] was < 100 nM.

`Nc1ncnc2c1c(-c1ccc(Oc3cccc(COc4ccccc4C(F)(F)F)c3)cc1)nn2C1CCOCC1` [Compound 36] was tested, and the EC50 [1] was < 100 nM and the Ki [2] was < 100 nM.

With `Cc1ncc(COc2cccc(Oc3ccc(-c4nn(C5CCCC5)c5ncnc(N)c45)cc3)c2)s1` [Compound 37] the EC50 [1] was < 100 nM and the Ki [2] was < 100 nM.

In the case of `Cc1ncc(COc2cccc(Oc3ccc(-c4nn(C5CCOCC5)c5ncnc(N)c45)cc3)c2)s1` [Compound 38], the EC50 [1] is reported as < 100 nM and the Ki [2] is reported as < 100 nM.

For `Nc1ncnc2c1c(-c1ccc(Oc3cccc(OCc4cncs4)c3)cc1)nn2CCN1CCCC1` [Compound 39], the EC50 [1] was 100 to 1000 nM and the Ki [2] was < 100 nM.

With `CN1CCN(CCn2nc(-c3ccc(Oc4cccc(OCc5cncs5)c4)cc3)c3c(N)ncnc32)CC1` [Compound 40] the EC50 [1] was 100 to 1000 nM and the Ki [2] was < 100 nM.

For `Nc1ncnc2c1c(-c1ccc(Oc3cccc(OCc4cncs4)c3)cc1)nn2CCc1ccncc1` [Compound 41], the EC50 [1] was 100 to 1000 nM and the Ki [2] was < 100 nM.

In the case of `Nc1ncnc2c1c(-c1ccc(Oc3cccc(OCc4cncs4)c3)cc1)nn2CCc1ccccc1` [Compound 42], the EC50 [1] is reported as < 100 nM and the Ki [2] is reported as < 100 nM.

For `Nc1ncnc2c1c(-c1ccc(Oc3cccc(OCc4cncs4)c3)cc1)nn2C1CCNCC1` [Compound 43], the EC50 [1] was 100 to 1000 nM and the Ki [2] was < 100 nM.

For `Nc1ncnc2c1c(-c1ccc(Oc3cccc(OCc4cncs4)c3)cc1)nn2CCN1CCOCC1` [Compound 44], the EC50 [1] was < 100 nM and the Ki [2] was < 100 nM.

`CC(=O)n1nc(-c2ccc(Oc3cccc(OCc4ccccc4)c3)cc2)c2c(N)ncnc21` [Compound 45] gave an EC50 [1] of 100 to 1000 nM.

With `CC(=O)N1CCC(n2nc(-c3ccc(Oc4cccc(OCc5cncs5)c4)cc3)c3c(N)ncnc32)CC1` [Compound 47] the EC50 [1] was < 100 nM and the Ki [2] was < 100 nM.

With `Cn1cncc1COc1cccc(Oc2ccc(-c3nn(C4CCOCC4)c4ncnc(N)c34)cc2)c1` [Compound 48] the EC50 [1] was < 100 nM and the Ki [2] was < 100 nM.

With `CC(C)(C)OC(=O)N1CCCC(n2nc(-c3ccc(Oc4cccc(OCc5cncs5)c4)cc3)c3c(N)ncnc32)C1` (stereo not drawn) [Compound 49] the EC50 [1] was < 100 nM and the Ki [2] was < 100 nM.

In the case of `Nc1ncnc2c1c(-c1ccc(Oc3cccc(OCc4cncs4)c3)cc1)nn2C1CCCNC1` (stereo not drawn) [Compound 51], the EC50 [1] is reported as < 100 nM and the Ki [2] is reported as < 100 nM.

`Cc1ncc(COc2cc(F)cc(Oc3ccc(-c4nn(CCN5CCOCC5)c5ncnc(N)c45)cc3)c2)s1` [Compound 52] was tested, and the EC50 [1] was < 100 nM and the Ki [2] was < 100 nM.

With `Nc1ncnc2c1c(-c1ccc(Oc3cccc(OCc4cncs4)c3)cc1)nn2CCCN1CCOCC1` [Compound 53] the EC50 [1] was < 100 nM and the Ki [2] was < 100 nM.

With `Cc1ncc(COc2cc(F)cc(Oc3ccc(-c4nn(CCCN5CCOCC5)c5ncnc(N)c45)cc3)c2)s1` [Compound 55] the EC50 [1] was < 100 nM and the Ki [2] was < 100 nM.

`Cc1ncc(COc2cc(F)cc(Oc3ccc(-c4nn(C[C@@H]5CCCN5)c5ncnc(N)c45)cc3)c2)s1` [Compound 56] was tested, and the EC50 [1] was 100 to 1000 nM.

`Cc1ncc(COc2cc(F)cc(Oc3ccc(-c4nn(CCN5CCCC5)c5ncnc(N)c45)cc3)c2)s1` [Compound 57] was tested, and the EC50 [1] was 100 to 1000 nM and the Ki [2] was < 100 nM.

For `[2H]C([2H])(Oc1cc(F)cc(Oc2ccc(-c3nn(C4CCOCC4)c4ncnc(N)c34)c(F)c2)c1)c1cncn1C` [Compound 89], the EC50 [1] was < 100 nM.

With `[2H]C([2H])(Oc1cc(F)cc(Oc2ccc(-c3nn(C4CCOCC4)c4ncnc(N)c34)cc2)c1)c1ccc(C)nc1` [Compound 94] the EC50 [1] was < 100 nM.
